The source of these data is patent US9688710B2, “Inhibitors of sodium glucose cotransporter 1” (LEXICON PHARMACEUTICALS, INC., priority 2012, dated 2017).

In assay [1] the target is Human sodium/glucose co-transporter type 1 (SGLT1) (Homo sapiens (Human), UniProt P13866). Put plainly: In vitro human SGLT1 inhibition assay (14C-AMG uptake). The settings on record: HEK293 cells expressing human HA-SGLT1, 14C-AMG uptake. Format: cell-based. In short, it runs like this:
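Uptake of 14C-AMG (100 nCi) was measured by scintillation counting after 1–2 h at 37 °C, 5% CO2, with or without compound. The buffer was pH 7.3 with 140 mM NaCl, 1 mM CaCl2, 1 mM MgCl2 and 1 mg/mL BSA. Cells were a stable HEK293 line carrying HA-SGLT1 (human), plated overnight at 30,000 per well.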

Assay [2] addresses Human sodium/glucose co-transporter type 2 (SGLT2) (Homo sapiens (Human), UniProt P31639). In words: In vitro human SGLT2 inhibition assay (14C-AMG uptake). It is filed as cell-based. Particulars: HEK293 cells expressing human HA-SGLT2, 14C-AMG uptake. In a few lines:
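Uptake of 14C-AMG (100 nCi) was followed in a stable HEK293 HA-SGLT2 line over 1-2 h at 37 °C with or without compound. Buffer: 140 mM NaCl, 10 mM HEPES, 5 mM Tris, 1 mg/mL BSA, pH 7.3. Readout was scintillation counting after washing.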

Structures are written as SMILES.

Human sodium/glucose co-transporter type 2 (SGLT2), sequence (P31639 whole entry): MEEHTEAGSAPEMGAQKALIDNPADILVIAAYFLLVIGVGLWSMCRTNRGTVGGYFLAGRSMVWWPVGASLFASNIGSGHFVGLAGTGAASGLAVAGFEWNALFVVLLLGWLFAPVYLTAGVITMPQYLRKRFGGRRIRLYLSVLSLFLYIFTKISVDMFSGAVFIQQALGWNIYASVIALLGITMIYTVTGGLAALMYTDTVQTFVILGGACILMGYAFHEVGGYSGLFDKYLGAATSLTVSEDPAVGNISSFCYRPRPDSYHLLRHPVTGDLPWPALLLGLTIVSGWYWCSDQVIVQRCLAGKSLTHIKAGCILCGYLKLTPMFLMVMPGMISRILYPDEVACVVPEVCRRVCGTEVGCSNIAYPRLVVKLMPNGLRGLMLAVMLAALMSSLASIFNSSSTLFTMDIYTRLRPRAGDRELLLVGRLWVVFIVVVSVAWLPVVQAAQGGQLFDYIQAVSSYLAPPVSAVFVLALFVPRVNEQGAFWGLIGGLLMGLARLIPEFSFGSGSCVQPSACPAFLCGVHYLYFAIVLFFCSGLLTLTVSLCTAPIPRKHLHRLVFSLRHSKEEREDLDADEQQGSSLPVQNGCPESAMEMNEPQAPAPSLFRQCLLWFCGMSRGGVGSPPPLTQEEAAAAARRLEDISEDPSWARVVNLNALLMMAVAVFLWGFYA
Human sodium/glucose co-transporter type 1 (SGLT1), sequence (P13866 whole entry): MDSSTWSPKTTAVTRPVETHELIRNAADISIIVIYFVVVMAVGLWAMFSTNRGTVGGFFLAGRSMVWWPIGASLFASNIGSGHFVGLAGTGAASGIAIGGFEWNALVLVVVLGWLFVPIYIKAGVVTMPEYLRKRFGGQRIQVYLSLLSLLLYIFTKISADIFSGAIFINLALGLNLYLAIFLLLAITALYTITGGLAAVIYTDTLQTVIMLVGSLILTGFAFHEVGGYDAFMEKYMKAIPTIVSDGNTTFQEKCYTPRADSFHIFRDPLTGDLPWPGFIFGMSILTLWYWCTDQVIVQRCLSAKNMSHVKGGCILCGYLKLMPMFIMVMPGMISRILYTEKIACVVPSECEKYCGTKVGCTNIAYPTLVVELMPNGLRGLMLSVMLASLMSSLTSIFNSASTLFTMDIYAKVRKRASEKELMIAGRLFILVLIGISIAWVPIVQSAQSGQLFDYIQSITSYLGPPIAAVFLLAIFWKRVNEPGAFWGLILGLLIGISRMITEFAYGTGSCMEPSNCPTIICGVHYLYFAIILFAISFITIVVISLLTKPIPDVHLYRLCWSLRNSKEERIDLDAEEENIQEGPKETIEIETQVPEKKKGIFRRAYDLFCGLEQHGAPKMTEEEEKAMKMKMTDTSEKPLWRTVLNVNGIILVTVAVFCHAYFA

In the case of `CS[C@H]1O[C@@H](c2ccc(C)c(Cc3ccc(CCCC(=O)NC(C)(C)C(=O)N4CCN(CCO)CC4)cc3)c2)[C@H](O)[C@@H](O)[C@@H]1O` [N-(1-(4-(2-hydroxyethyl)piperazin-1-yl)-2-methyl-1-oxopropan-2-yl)-4-(4-(2-methyl-5-((2S,3R,4R,5S,6R)-3,4,5-trihydroxy-6-(methylthio)tetrahydro-2H-pyran-2-yl)benzyl)phenyl)butanamide], the IC50 in assay [1] and in assay [2] was under 10 nM each time.

`CS[C@H]1O[C@@H](c2ccc(C)c(Cc3ccc(OCCCC(=O)NC(C)(C)C(=O)N4CCN(C)CC4)cc3)c2)[C@H](O)[C@@H](O)[C@@H]1O` [N-(2-methyl-1-(4-methylpiperazin-1-yl)-1-oxopropan-2-yl)-4-(4-(2-methyl-5-((2S,3R,4R,5S,6R)-3,4,5-trihydroxy-6-(methylthio)tetrahydro-2H-pyran-2-yl)benzyl)phenoxy)butanamide]: the IC50 in assay [1] and in assay [2] was under 10 nM each time.

`CS[C@H]1O[C@@H](c2ccc(C)c(Cc3ccc(CCCC(=O)NCCN(CCNC(=O)CCCc4ccc(Cc5cc([C@@H]6O[C@H](SC)[C@@H](O)[C@H](O)[C@H]6O)ccc5C)cc4)CCNC(=O)CCCc4ccc(Cc5cc([C@@H]6O[C@H](SC)[C@@H](O)[C@H](O)[C@H]6O)ccc5C)cc4)cc3)c2)[C@H](O)[C@@H](O)[C@@H]1O` [(S,R,S,R,R,S,R,S,R,R)-N,N′,N″-(nitrilotris(ethane-2,1-diyl))tris(4-(4-(2-methyl-5-((2S,3R,4R,5S,6R)-3,4,5-trihydroxy-6-(methylthio)tetrahydro-2H-pyran-2-yl)benzyl)phenyl)butanamide)]: the IC50 in assay [1] was under 100 nM; in assay [2], under 10 nM.

`CS[C@H]1O[C@@H](c2ccc(C)c(Cc3ccc(CCCC(=O)NC4(C(=O)N5CCN(C)CC5)CCOCC4)cc3)c2)[C@H](O)[C@@H](O)[C@@H]1O` [4-(4-(2-methyl-5-((2S,3R,4R,5S,6R)-3,4,5-trihydroxy-6-(methylthio)tetrahydro-2H-pyran-2-yl)benzyl)phenyl)-N-(4-(4-methylpiperazine-1-carbonyl)tetrahydro-2H-pyran-4-yl)butanamide]: the IC50 in assay [1] and in assay [2] was under 10 nM each time.

Take `CS[C@H]1O[C@@H](c2ccc(Cl)c(Cc3ccc(OCCCC(=O)N(C)C(C)(C)CO)cc3)c2)[C@H](O)[C@@H](O)[C@@H]1O` [4-(4-(2-chloro-5-((2S,3R,4R,5S,6R)-3,4,5-trihydroxy-6-(methylthio)tetrahydro-2H-pyran-2-yl)benzyl)phenoxy)-N-(1-hydroxy-2-methylpropan-2-yl)-N-methylbutanamide]: the values for the IC50 in assay [1] and in assay [2] were under 100 nM and under 10 nM, respectively.

`CSC1OC(c2ccc(C)c(Cc3ccc(CCCC(=O)N4CCN(CCCN5CCN(C(=O)CCCc6ccc(Cc7cc(C8OC(SC)C(O)C(O)C8O)ccc7C)cc6)CC5)CC4)cc3)c2)C(O)C(O)C1O` [(S,R,S,R,R)-1,1′-(4,4′-(propane-1,3-diyl)bis(piperazine-4,1-diyl))bis(4-(4-(2-methyl-5-((2S,3R,4R,5S,6R)-3,4,5-trihydroxy-6-(methylthio)tetrahydro-2H-pyran-2-yl)benzyl)phenyl)butan-1-one)]: the IC50 in assay [1] and in assay [2] was under 10 nM throughout.

Take `CS[C@H]1O[C@@H](c2ccc(C)c(Cc3ccc(CCCC(=O)NC(C)(C)C(=O)N4CCOCC4)cc3)c2)[C@H](O)[C@@H](O)[C@@H]1O` [N-(2-methyl-1-morpholino-1-oxopropan-2-yl)-4-(4-(2-methyl-5-((2S,3R,4R,5S,6R)-3,4,5-trihydroxy-6-(methylthio)tetrahydro-2H-pyran-2-yl)benzyl)phenyl)butanamide]: the IC50 in assay [1] and in assay [2] was under 10 nM each time.

As for `CS[C@H]1O[C@@H](c2ccc(C)c(Cc3ccc(CCCCC(=O)N4CCN(C)CC4)cc3)c2)[C@H](O)[C@@H](O)[C@@H]1O` [5-(4-(2-methyl-5-((2S,3R,4R,5S,6R)-3,4,5-trihydroxy-6-(methylthio)tetrahydro-2H-pyran-2-yl)benzyl)phenyl)-1-(4-methylpiperazin-1-yl)pentan-1-one], the IC50 was under 100 nM in assay [1] and under 10 nM in assay [2].

On to `CS[C@H]1O[C@@H](c2ccc(C)c(Cc3ccc(OCCCC(=O)NC(C)(C)C(=O)O)cc3)c2)[C@H](O)[C@@H](O)[C@@H]1O` [2-methyl-2-(4-(4-(2-methyl-5-((2S,3R,4R,5S,6R)-3,4,5-trihydroxy-6-(methylthio)tetrahydro-2H-pyran-2-yl)benzyl)phenoxy)butanamido)propanoic acid], for which the IC50 in assay [1] and in assay [2] was under 10 nM each time.

With `CS[C@H]1O[C@@H](c2ccc(C)c(Cc3ccc(OCCCC(=O)NC(CO)(CO)CO)cc3)c2)[C@H](O)[C@@H](O)[C@@H]1O` [N-(1,3-dihydroxy-2-(hydroxymethyl)propan-2-yl)-4-(4-(2-methyl-5-((2S,3R,4R,5S,6R)-3,4,5-trihydroxy-6-(methylthio)tetrahydro-2H-pyran-2-yl)benzyl)phenoxy)butanamide], the IC50 in assay [1] and in assay [2] was under 10 nM throughout.

For `CS[C@H]1O[C@@H](c2ccc(C)c(Cc3ccc(CCCCNCC(O)CO)cc3)c2)[C@H](O)[C@@H](O)[C@@H]1O` (stereo partly drawn) [(2S,3R,4R,5S,6R)-2-(3-(4-(4-((2,3-dihydroxypropyl)amino)butyl)benzyl)-4-methylphenyl)-6-(methylthio)tetrahydro-2H-pyran-3,4,5-triol], the IC50 was under 100 nM in assay [1] and under 10 nM in assay [2].

As for `CS[C@H]1O[C@@H](c2ccc(C)c(Cc3ccc(CCCCCN(C[C@H](O)CO)C[C@H](O)CO)cc3)c2)[C@H](O)[C@@H](O)[C@@H]1O` [(2S,3R,4R,5S,6R)-2-(3-(4-(5-(bis((S)-2,3-dihydroxypropyl)amino)pentyl)benzyl)-4-methylphenyl)-6-(methylthio)tetrahydro-2H-pyran-3,4,5-triol], the results for the IC50 in assay [1] and in assay [2] were under 100 nM and under 10 nM, respectively.

As for `CS[C@H]1O[C@@H](c2ccc(C)c(Cc3ccc(OCCCC(=O)N[C@@H](CO)C(N)=O)cc3)c2)[C@H](O)[C@@H](O)[C@@H]1O` [N-((S)-1-amino-3-hydroxy-1-oxopropan-2-yl)-4-(4-(2-methyl-5-((2S,3R,4R,5S,6R)-3,4,5-trihydroxy-6-(methylthio)tetrahydro-2H-pyran-2-yl)benzyl)phenoxy)butanamide], the values for the IC50 in assay [1] and in assay [2] were under 100 nM and under 10 nM, respectively.

As to `CS[C@H]1O[C@@H](c2ccc(C)c(Cc3ccc(CCCC(=O)NC(C)(C)C(N)=O)cc3)c2)[C@H](O)[C@@H](O)[C@@H]1O` [N-(1-amino-2-methyl-1-oxopropan-2-yl)-4-(4-(2-methyl-5-((2S,3R,4R,5S,6R)-3,4,5-trihydroxy-6-(methylthio)tetrahydro-2H-pyran-2-yl)benzyl)phenyl)butanamide], the IC50 in assay [1] and in assay [2] was under 10 nM throughout.

Turning to `CS[C@H]1O[C@@H](c2ccc(C)c(Cc3ccc(OCCCC(=O)NC(C)(C)C(=O)NCCN(C)C)cc3)c2)[C@H](O)[C@@H](O)[C@@H]1O` [N-(1-((2-(dimethylamino)ethyl)amino)-2-methyl-1-oxopropan-2-yl)-4-(4-(2-methyl-5-((2S,3R,4R,5S,6R)-3,4,5-trihydroxy-6-(methylthio)tetrahydro-2H-pyran-2-yl)benzyl)phenoxy)butanamide], the IC50 in assay [1] and in assay [2] was under 10 nM in each case.

With `CS[C@H]1O[C@@H](c2ccc(Cl)c(Cc3ccc(OCCCC(=O)NC(CO)(CO)CO)cc3)c2)[C@H](O)[C@@H](O)[C@@H]1O` [4-(4-(2-chloro-5-((2S,3R,4R,5S,6R)-3,4,5-trihydroxy-6-(methylthio)tetrahydro-2H-pyran-2-yl)benzyl)phenoxy)-N-(1,3-dihydroxy-2-(hydroxymethyl)propan-2-yl)butanamide], the IC50 in assay [1] was under 100 nM; in assay [2], under 10 nM.

Turning to `CS[C@H]1O[C@@H](c2ccc(C)c(Cc3ccc(OCCCC(=O)NC(C)(C)C(=O)N(C)CCN(C)C)cc3)c2)[C@H](O)[C@@H](O)[C@@H]1O` [N-(1-((2-(dimethylamino)ethyl)(methyl)amino)-2-methyl-1-oxopropan-2-yl)-4-(4-(2-methyl-5-((2S,3R,4R,5S,6R)-3,4,5-trihydroxy-6-(methylthio)tetrahydro-2H-pyran-2-yl)benzyl)phenoxy)butanamide], the results for the IC50 in assay [1] and in assay [2] were under 100 nM and under 10 nM, respectively.

As for `CS[C@H]1O[C@@H](c2ccc(C)c(Cc3ccc(OCC(=O)NCC(C)(C)C(N)=O)cc3)c2)[C@H](O)[C@@H](O)[C@@H]1O` [2,2-dimethyl-3-(2-(4-(2-methyl-5-((2S,3R,4R,5S,6R)-3,4,5-trihydroxy-6-(methylthio)tetrahydro-2H-pyran-2-yl)benzyl)phenoxy)acetamido)propanamide], the IC50 in assay [1] was under 100 nM; in assay [2], under 10 nM.

Turning to `CCC(=O)NCCCCc1ccc(Cc2cc([C@@H]3O[C@H](SC)[C@@H](O)[C@H](O)[C@H]3O)ccc2C)cc1` [N-(4-(4-(2-methyl-5-((2S,3R,4R,5S,6R)-3,4,5-trihydroxy-6-(methylthio)tetrahydro-2H-pyran-2-yl)benzyl)phenyl)butyl)propionamide], the IC50 in assay [1] and in assay [2] was under 10 nM in each case.

For orientation: IC50 means the midpoint of a concentration-inhibition curve.
